From patent US6887827B2, “Combinations of herbicidal aromatic carboxylic acids and safeners” (Bayer CropScience GmbH, priority 2002, dated 2005) come the findings set out here.

The test system of the data set is Triticum aestivum (wheat). Description: Post-emergence crop plant selectivity field trial: visually scored damage to wheat. The class given is in vivo. Particulars: wheat at 3-tiller growth stage, 39 days after treatment, average of three trials. How it is done:
1. Post-Emergence Effect on Weeds and Crop Plant Selectivity (Field Trials) Crop plants were grown outdoors on plots under natural outdoor conditions, and seeds or rhizome pieces of typical harmful plants were laid out or the natural weed growth was utilized. Treatment with the compositions according to the invention was carried out after the harmful plants had emerged and the crop plants were at the growth stage stated below. After the application, the effect of the composition was scored visually by comparison with untreated controls.

For the compound `COc1c(Cl)ccc(Cl)c1C(=O)O` [(A1), 3,6-dichloro-2-methoxybenzoic acid], the “Phytotox (%) on TRZAS” value reads like this: (140 g ai/ha) 27%; (210 g ai/ha) 25%; (280 g ai/ha) 27%.
As to `CCOC(=O)C1=NN(c2ccc(Cl)cc2Cl)C(C)(C(=O)OCC)C1` (centres unmarked) [(B1.1.1), ethyl 1-(2,4-dichlorophenyl)-5-(ethoxycarbonyl)-5-methyl-2-pyrazoline-3-carboxylate], the “Phytotox (%) on TRZAS” value by setting is: (50 g ai/ha) 0%; (120 g ai/ha) 0%.
